Experimental data reported in patent publication US7829575B2, “Methods for treating androgen receptor related disorders” (University of Cincinnati, priority 2006, dated 2010).

Key:
LNCaP-AI cells = experiment: Growth of androgen-independent LNCaP-AI cells, MTT; type: cell-based; conditions: SMEM, four days
Protocol: See, for example, FIG. 3 where LNCaP-A1 cells in SMEM and 22Rv1 cells in CMEM are cultured for four days with DL3, followed by MTT staining and 22Rv1 cells are obtained from ATCC.

AR-AF2 (NTD deleted) = experiment: PSA promoter luciferase reporter in PC-3 cells co-transfected with AR-AF2; conditions: 20 μM, 24 hr
LNCaP cells [1] = experiment: Cell cycle distribution and apoptosis, flow cytometry (propidium staining) and western blotting; type: cell-based
Protocol: To further appreciate the effects of DL3 on cell growth, cell cycle distribution is determined using the flow cytometry analysis. After incubation of LNCaP cells for 24 hr in SMEM, the majority of cells are in the G1 phase of cell cycle. […] The cell cycle distribution is examined by the propidium staining method. […] Thus, DL3 induces GI arrest of prostate cancer cells in short term culture.

LNCaP-Nilut-R cells = experiment: Growth of Nilut-refractory LNCaP cells, MTT; type: cell-based; conditions: 10 μM, 4 days, MTT (FIG. 2F)
Text: Viable cells are stained with MTT (3-(4,5-dimethylthiazol-2-yl)-2,5-diphenyltetrazolium bromide). *, **, and *** designate p<0.05, <0.01, and 0.001, respectively, compared with controls.

AR = AR nuclear localization, immunostaining; type: cell-based; conditions: PC-3AR and LNCaP cells, SMEM, 20 μM, with or without 1 nM DHT, 2 h
Text: AR nuclear translocation is a necessary step for AR action. […] AR in the cells were stained with an antibody to AR and detected with Texas Red-labeled secondary antibody. […] AR is translocated to the nuclei upon treatment with DHT. […] Thus, DL3 binds to AR.

LNCaP cells [2] = experiment: PSA gene transcription, real-time PCR-based nuclear run-on; conditions: 20 μM, 16 hr
[3] = test system: LAPC-4, 22Rv1, PC-3, DU-145, PWE1-NB14, PWE1-NB26, PC-3AR cells; experiment: hsp70 expression in other prostate cancer cell lines, western blotting; type: cell-based
Protocol: Downregulation of hsp70 expression by DL3 is AR-dependent. Thus, the effects of DL3 on hsp70 expression are further investigated in several other prostate cancer cell lines, including LAPC-4 (wildtype AR), 22Rv1 (mutant AR), and AR-negative cell lines PC-3, DU-145, PWE1-NB14 (ATCC), and PWE1-NB26 (ATCC). […] In FIG. 10, LAPC-4 (in SMEM) and all other (in CMEM) cells are treated for 24 hr and analyzed by western blotting. LNCaP cells are transfected for 24 hr with hsp70 or its control vector, then treated for 24 hr. Thus, the above observation is further validated in PC-3 cells stably transfected with wildtype AR (PC-3AR). […] On the other hand, overexpression of hsp70 in LNCaP cells elevates endogenous AR protein levels (FIG. 10, panel C, right). […] Thus, the downregulation of hsp70 in prostate cancer cells by DL3 is in an AR-dependent event.

human PSA gene promoter = experiment: PSA promoter luciferase reporter (pGL3-PSA-luc) in LNCaP cells; conditions: 24 hr
LNCaP cells [4] = experiment: PSA secretion, ELISA of culture supernatant; type: cell-based
Protocol: PSA in the culture supernatant is determined by using an enzyme-linked immunosorbent assay (ELISA) kit. PSA levels are normalized by cell density.

LNCaP cells [5] = experiment: Cellular PSA and AR protein, western blotting; type: cell-based; conditions: 24 hr
Protocol: In FIG. 6, cellular PSA and AR are analyzed by western blotting androgen-starved LNCaP cells.

wildtype AR = target: T1, wildtype AR (Homo sapiens, UniProt P10275); experiment: PSA promoter luciferase reporter in PC-3 cells co-transfected with AR; conditions: PC-3 cells transfected with wildtype AR, 20 μM, 1 nM DHT, 24 hr
T1 sequence (P10275 1-920): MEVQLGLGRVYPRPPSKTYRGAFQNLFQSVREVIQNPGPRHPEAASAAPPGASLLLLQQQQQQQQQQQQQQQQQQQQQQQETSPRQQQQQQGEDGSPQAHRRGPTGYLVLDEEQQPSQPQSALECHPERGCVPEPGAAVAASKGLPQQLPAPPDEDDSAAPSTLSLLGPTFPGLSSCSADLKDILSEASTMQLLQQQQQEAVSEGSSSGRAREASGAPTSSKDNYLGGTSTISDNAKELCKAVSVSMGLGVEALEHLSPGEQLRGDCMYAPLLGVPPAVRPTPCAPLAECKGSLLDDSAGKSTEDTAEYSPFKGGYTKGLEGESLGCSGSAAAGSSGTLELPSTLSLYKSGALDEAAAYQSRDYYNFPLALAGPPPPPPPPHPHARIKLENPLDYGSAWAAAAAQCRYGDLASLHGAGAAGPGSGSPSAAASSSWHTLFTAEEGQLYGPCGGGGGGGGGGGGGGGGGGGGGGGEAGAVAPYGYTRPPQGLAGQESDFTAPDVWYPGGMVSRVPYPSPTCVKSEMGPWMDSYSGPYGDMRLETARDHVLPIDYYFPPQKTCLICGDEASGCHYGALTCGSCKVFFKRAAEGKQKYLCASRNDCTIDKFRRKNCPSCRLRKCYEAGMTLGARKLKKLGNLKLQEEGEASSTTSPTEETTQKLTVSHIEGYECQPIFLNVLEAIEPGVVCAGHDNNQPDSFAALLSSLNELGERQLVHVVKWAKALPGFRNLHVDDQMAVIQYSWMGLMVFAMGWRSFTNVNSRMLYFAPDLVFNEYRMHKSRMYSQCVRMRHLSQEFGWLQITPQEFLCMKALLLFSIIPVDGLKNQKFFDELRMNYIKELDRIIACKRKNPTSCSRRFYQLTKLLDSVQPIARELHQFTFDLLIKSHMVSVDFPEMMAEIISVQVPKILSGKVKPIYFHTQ

LNCaP cells [6] = experiment: PSA and AR mRNA expression, RT-PCR; type: cell-based; conditions: 6 hr

DHT-induced activation of PSA promoter activity (wildtype AR): significantly inhibits
SMILES: CC(C)(C)c1ccc(OCCSc2nc(=O)cc(N)[nH]2)cc1 [DL3, 6-amino-2-(2-4-tert-butyl-phenoxy)-ethylsulfanyl-1H-pyrimidin-4-one]
growth of androgen-independent LNCaP-AI cells (LNCaP-AI cells): suppressed
activation of PSA promoter activity by AR-AF2 (AR-AF2 (NTD deleted)): does not inhibit
increase of the portion of cells in G1 phase of cell cycle (LNCaP cells [1]; 24 hr, regardless of presence or absence of DHT): 15%
induction of apoptosis (LNCaP cells [1]; 24 hr, DL3 at 20 μM): does not induce apoptosis
survivin expression and caspase 3 cleavage (western blotting) (LNCaP cells [1]; data not shown): alter neither survivin expression nor caspase 3 cleavage
growth of LNCaP-Nilut-R cells (LNCaP-Nilut-R cells): significantly inhibits growth
nuclear localization of AR (AR): partially induce and enhance DHT-induced nuclear localization of AR
DHT-induced PSA mRNA transcription activity of nuclear extracts (LNCaP cells [2]; 1 nM DHT): significantly reduced
basal PSA mRNA transcription activity of nuclear extracts (LNCaP cells [2]): significantly reduced
downregulation of hsp70 expression across AR-positive and AR-negative cell lines ([3]; LAPC-4, 22Rv1 vs AR-negative PC-3, DU-145, PWE1-NB14, PWE1-NB26, 24 hr): found in only the cells expressing AR
hsp70 expression in PC-3AR cells ([3]; PC-3 stably transfected with wildtype AR): downregulates hsp70 expression
basal PSA promoter activity (human PSA gene promoter; 20 μM alone): does not significantly alter
PSA promoter activity induced by DHT (human PSA gene promoter; 20 μM, 1 nM DHT): attenuates
PSA production in parental LNCaP cells (LNCaP cells [4]; 1 nM DHT, 10 μM, 48 hr (FIG. 5D)): inhibits PSA production
reduction of DHT-induced production of PSA (LNCaP cells [4]; 5 μM, 48 hr): approximately 50%
PSA production under androgen-free conditions (LNCaP cells [4]; 20 μM, no DHT, 48 hr): does not induce PSA production
inhibition at 20 µM (LNCaP cells [4]; Homo sapiens, LNCaP, 48 h, read-out: inhibition of DHT-induced PSA production): ~90%
inhibitory effects on DHT-induced PSA production, dose response (LNCaP cells [4]; various concentrations of DL3 and DHT (FIG. 5B)): dose-dependent
PSA production stimulated by Nilut (LNCaP cells [4]; various concentrations of DL3 and Nilut (FIG. 5C)): blocked
expression of AR protein (LNCaP cells [5]; 5 and 10 μM): not significantly altered
expression of AR protein (LNCaP cells [5]; 20 and 40 μM): reduced
DHT-induced PSA protein expression (LNCaP cells [5]; SMEM, Flut, Nilut, Bical at 20 μM): dose-dependently reduced
AR mRNA expression (LNCaP cells [6]): not significantly altered
